SMILES strings stand for the structures.

Type in all cases: in vivo
The subject of one test is Botrytis cinerea. In words: Test A: preventive spray on tomato seedlings, tomato Botrytis, visual disease rating. As to conditions: 200 ppm test suspension, Botrytis cinerea inoculated the day after spraying; for pest or weed control at 200 ppm: 120 h. The protocol: General protocol for preparing test suspensions for Tests A-G: the test compounds were first dissolved in acetone in an amount equal to 3% of the final volume and then suspended at the desired concentration (in ppm) in acetone and purified water (50/50 mix by volume) containing 250 ppm of the surfactant Trem® 014 (polyhydric alcohol esters). The resulting test suspensions were then used in Tests A-G. Each test was conducted in triplicate, and the results were averaged. Spraying a 200 ppm test suspension to the point of run-off on the test plants was the equivalent of a rate of 800 g/ha. Unless otherwise indicated, the rating values indicate a 200 ppm test suspension was used. (An asterisk “*” next to the rating value indicates a 40 ppm test suspension was used.) The test suspension was sprayed to the point of run-off on tomato seedlings. The following day the seedlings were inoculated with a spore suspension of Botrytis cinerea (the causal agent of tomato Botrytis) and incubated in saturated atmosphere at 20° C. for 48 h, and then moved to a growth chamber at 24° C. for 3 additional days, after which time visual disease ratings were made. Results for Tests A-G are given in Table A. In the Table, a rating of 100 indicates 100% disease control and a rating of 0 indicates no disease control (relative to the controls). A hyphen (-) indicates no test results.

A further test relates to Septoria nodorum. In words: Test C: preventive spray on wheat seedlings, Septoria glume blotch, visual disease rating. The note with it: 200 ppm test suspension, Septoria nodorum inoculated the day after spraying; for pest or weed control at 200 ppm: Parastagonospora nodorum, 264 h. On the procedure: General protocol for preparing test suspensions for Tests A-G: the test compounds were first dissolved in acetone in an amount equal to 3% of the final volume and then suspended at the desired concentration (in ppm) in acetone and purified water (50/50 mix by volume) containing 250 ppm of the surfactant Trem® 014 (polyhydric alcohol esters). The resulting test suspensions were then used in Tests A-G. Each test was conducted in triplicate, and the results were averaged. Spraying a 200 ppm test suspension to the point of run-off on the test plants was the equivalent of a rate of 800 g/ha. Unless otherwise indicated, the rating values indicate a 200 ppm test suspension was used. (An asterisk “*” next to the rating value indicates a 40 ppm test suspension was used.) The test suspension was sprayed to the point of run-off on wheat seedlings. The following day the seedlings were inoculated with a spore suspension of Septoria nodorum (the causal agent of Septoria glume blotch) and incubated in a saturated atmosphere at 24° C. for 48 h, and then moved to a growth chamber at 20° C. for 9 days, after which time visual disease ratings were made. Results for Tests A-G are given in Table A. In the Table, a rating of 100 indicates 100% disease control and a rating of 0 indicates no disease control (relative to the controls). A hyphen (-) indicates no test results.

The next test has as its system Septoria tritici. In words: Test D: preventive spray on wheat seedlings, wheat leaf blotch, visual disease rating. As to conditions: 200 ppm test suspension, Septoria tritici inoculated the day after spraying; for pest or weed control at 200 ppm: Zymoseptoria tritici, 504 h. On the procedure: General protocol for preparing test suspensions for Tests A-G: the test compounds were first dissolved in acetone in an amount equal to 3% of the final volume and then suspended at the desired concentration (in ppm) in acetone and purified water (50/50 mix by volume) containing 250 ppm of the surfactant Trem® 014 (polyhydric alcohol esters). The resulting test suspensions were then used in Tests A-G. Each test was conducted in triplicate, and the results were averaged. Spraying a 200 ppm test suspension to the point of run-off on the test plants was the equivalent of a rate of 800 g/ha. Unless otherwise indicated, the rating values indicate a 200 ppm test suspension was used. (An asterisk “*” next to the rating value indicates a 40 ppm test suspension was used.) The test suspension was sprayed to the point of run-off on wheat seedlings. The following day the seedlings were inoculated with a spore suspension of Septoria tritici (the causal agent of wheat leaf blotch) and incubated in saturated atmosphere at 24° C. for 48 h. and then the seedlings were moved to a growth chamber at 20° C. for 19 additional days, after which time visual disease ratings were made. Results for Tests A-G are given in Table A. In the Table, a rating of 100 indicates 100% disease control and a rating of 0 indicates no disease control (relative to the controls). A hyphen (-) indicates no test results.

For test [1], the system named is Puccinia recondita f. sp. tritici. Briefly: Test F: preventive spray on wheat seedlings, wheat leaf rust, visual disease rating. The note with it: 200 ppm test suspension, Puccinia recondita f. sp. tritici inoculated the day after spraying; for pest or weed control at 200 ppm: 168 h. The protocol:
General protocol for preparing test suspensions for Tests A-G: the test compounds were first dissolved in acetone in an amount equal to 3% of the final volume and then suspended at the desired concentration (in ppm) in acetone and purified water (50/50 mix by volume) containing 250 ppm of the surfactant Trem® 014 (polyhydric alcohol esters). The resulting test suspensions were then used in Tests A-G. Each test was conducted in triplicate, and the results were averaged. Spraying a 200 ppm test suspension to the point of run-off on the test plants was the equivalent of a rate of 800 g/ha. Unless otherwise indicated, the rating values indicate a 200 ppm test suspension was used. (An asterisk “*” next to the rating value indicates a 40 ppm test suspension was used.) The test suspension was sprayed to the point of run-off on wheat seedlings. The following day the seedlings were inoculated with a spore suspension of Puccinia recondita f. sp. tritici (the causal agent of wheat leaf rust) and incubated in a saturated atmosphere at 20° C. for 24 h, and then moved to a growth chamber at 20° C. for 6 days, after which time visual disease ratings were made. Results for Tests A-G are given in Table A. In the Table, a rating of 100 indicates 100% disease control and a rating of 0 indicates no disease control (relative to the controls). A hyphen (-) indicates no test results.

Test [2] concerns Blumeria graminis f. sp. tritici. Briefly: Test G: preventive spray on wheat seedlings, wheat powdery mildew, visual disease rating.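 As to all read-outs here: rated 8 days after spore dust inoculation at 20 °C.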 The note with it: 200 ppm test suspension, Blumeria graminis f. sp. tritici inoculated the day after spraying; for pest or weed control at 200 ppm: 192 h. On the procedure:
General protocol for preparing test suspensions for Tests A-G: the test compounds were first dissolved in acetone in an amount equal to 3% of the final volume and then suspended at the desired concentration (in ppm) in acetone and purified water (50/50 mix by volume) containing 250 ppm of the surfactant Trem® 014 (polyhydric alcohol esters). The resulting test suspensions were then used in Tests A-G. Each test was conducted in triplicate, and the results were averaged. Spraying a 200 ppm test suspension to the point of run-off on the test plants was the equivalent of a rate of 800 g/ha. Unless otherwise indicated, the rating values indicate a 200 ppm test suspension was used. (An asterisk “*” next to the rating value indicates a 40 ppm test suspension was used.) The test suspension was sprayed to the point of run-off on wheat seedlings. The following day the seedlings were inoculated with a spore dust of Blumeria graminis f. sp. tritici (also known as Erysiphe graminis f. sp. tritici, the causal agent of wheat powdery mildew) and incubated in a growth chamber at 20° C. for 8 days, after which time visual disease ratings were made. Results for Tests A-G are given in Table A. In the Table, a rating of 100 indicates 100% disease control and a rating of 0 indicates no disease control (relative to the controls). A hyphen (-) indicates no test results.

Consider `Cc1nn(C)c(OC(C)C)c1-c1ccc(F)cc1Cl` [Compound 31], for which, in the test with Botrytis cinerea, the “Test A rating (disease control)” value is on record as 0%. Also, the “Test C rating (disease control)” value with Septoria nodorum amounted to 0%. In the test with Septoria tritici, the “Test D rating (disease control)” value is 0%. For the same compound, the “Test F rating (disease control)” value in test [1] is recorded as 22%. Also, in test [2], the “Test G rating (disease control)” value amounted to 0%.

Take `Cc1nn(C)c(C(N)C(C)C)c1-c1c(F)cccc1Cl` (stereo not drawn) [Compound 32]: the “Test A rating (disease control)” value in the test with Botrytis cinerea was determined as 0%. Also, in the test with Septoria nodorum, the “Test C rating (disease control)” value is listed as 100%. Also, the “Test D rating (disease control)” value in the test on Septoria tritici was 94%. Further, the “Test F rating (disease control)” value in test [1] came out at 96%. Further, the “Test G rating (disease control)” value in test [2] is 0%.

In general, pest or weed control refers to the degree to which the test organism was suppressed or injured, in per cent. A high value points to a strong effect. `CCC(C)C(N)c1c(-c2c(F)cccc2Cl)c(C)nn1C` (stereo not drawn) [Compound 33, 4-(2-chloro-6-fluorophenyl)-1,3-dimethyl-α-(1-methylpropyl)-1H-pyrazole-5-methanamine]: the pest or weed control at 200 ppm in the test on Botrytis cinerea worked out at 90%; in the test with Septoria nodorum it was 98%; in the test with Septoria tritici, 92%; in test [1], 80%; in test [2], 56%.

Take `CCCCNc1c(-c2ccc(F)cc2Br)c(C)nn1C` [Compound 36]: the “Test A rating (disease control)” value with Botrytis cinerea was found to be 67%. The “Test C rating (disease control)” value with Septoria nodorum is on record as 100%. Moreover, in the test with Septoria tritici, the “Test D rating (disease control)” value is reported as 50%. The “Test F rating (disease control)” value in test [1] came out at 100%. Besides, the “Test G rating (disease control)” value in test [2] came out at 0%.

Turning to `CCCCN(CCCC)c1c(-c2ccc(F)cc2Br)c(C)nn1C` [Compound 37], the “Test A rating (disease control)” value in the test with Botrytis cinerea turned out to be 0%. Also, the “Test C rating (disease control)” value with Septoria nodorum was found to be 99%. The “Test D rating (disease control)” value in the test on Septoria tritici stood at 0%. The “Test F rating (disease control)” value in test [1] worked out at 99%. The “Test G rating (disease control)” value in test [2] worked out at 0%.

With `Cc1nn(C)c(NC(C)C)c1-c1ccc(F)cc1Br` [Compound 38], in the test on Botrytis cinerea, the “Test A rating (disease control)” value is on record as 100%. Also, the “Test C rating (disease control)” value in the test with Septoria nodorum is on record as 100%. Besides, in the test with Septoria tritici, the “Test D rating (disease control)” value was 46%. In addition, the “Test F rating (disease control)” value in test [1] stood at 100%. Also, the “Test G rating (disease control)” value in test [2] is 0%.

In the case of `CCN(CC)c1c(-c2ccc(F)cc2Br)c(C)nn1C` [Compound 39], the “Test A rating (disease control)” value with Botrytis cinerea came to 0%. The “Test C rating (disease control)” value in the test with Septoria nodorum is reported as 64%. For the same compound, in the test with Septoria tritici, the “Test D rating (disease control)” value is 0%. The “Test F rating (disease control)” value in test [1] is reported as 68%. Besides, in test [2], the “Test G rating (disease control)” value was determined as 0%.

`Cc1nn(C)c(N2CCOCC2)c1-c1ccc(F)cc1Cl` [Compound 40, 4-[4-(2-chloro-4-fluorophenyl)-1,3-dimethyl-1H-pyrazol-5-yl]morpholine]: the pest or weed control at 200 ppm in the test on Botrytis cinerea is 100%; in the test on Septoria nodorum, 0%; with Septoria tritici, 100%; in test [1], 99%; in test [2], 94%.

Turning to `Cc1nn(C)c(N2CCCCC2)c1-c1ccc(F)cc1Cl` [Compound 41], in the test on Botrytis cinerea, the “Test A rating (disease control)” value came to 99%. The “Test C rating (disease control)” value with Septoria nodorum was 0%. Further, the “Test D rating (disease control)” value in the test on Septoria tritici is on record as 88%. Further, the “Test F rating (disease control)” value in test [1] stood at 44%. In addition, the “Test G rating (disease control)” value in test [2] is 0%.

Regarding `Cc1nn(C)c(N2CCCCC2C)c1-c1ccc(F)cc1Cl` (stereo not drawn) [Compound 43], in the test on Botrytis cinerea, the “Test A rating (disease control)” value is recorded as 73%. In addition, the “Test C rating (disease control)” value in the test with Septoria nodorum is reported as 0%. Moreover, in the test on Septoria tritici, the “Test D rating (disease control)” value stood at 36%. Moreover, the “Test F rating (disease control)” value in test [1] is on record as 19%. Moreover, the “Test G rating (disease control)” value in test [2] is listed as 43%.

Consider `Cc1nn(C)c(NCC(C)C)c1-c1ccc(F)cc1Br` [Compound 44], for which the “Test A rating (disease control)” value in the test with Botrytis cinerea stood at 0%. Further, in the test on Septoria nodorum, the “Test C rating (disease control)” value was found to be 59%. For the same compound, the “Test D rating (disease control)” value with Septoria tritici is given as 0%. Besides, the “Test F rating (disease control)” value in test [1] was 90%. Moreover, the “Test G rating (disease control)” value in test [2] was 0%.

On to `COCCNc1c(-c2ccc(F)cc2Br)c(C)nn1C` [Compound 45], for which the “Test A rating (disease control)” value in the test with Botrytis cinerea amounted to 9%. Besides, the “Test C rating (disease control)” value in the test on Septoria nodorum amounted to 77%. For the same compound, the “Test D rating (disease control)” value in the test with Septoria tritici was 0%. Besides, the “Test F rating (disease control)” value in test [1] amounted to 68%. Besides, the “Test G rating (disease control)” value in test [2] is listed as 0%.

`COCCN(CCOC)c1c(-c2ccc(F)cc2Br)c(C)nn1C` [Compound 46]: the “Test A rating (disease control)” value with Botrytis cinerea amounted to 0%. Moreover, in the test on Septoria nodorum, the “Test C rating (disease control)” value was found to be 86%. Also, in the test on Septoria tritici, the “Test D rating (disease control)” value amounted to 0%. The “Test F rating (disease control)” value in test [1] was determined as 68%. Moreover, in test [2], the “Test G rating (disease control)” value is 13%.

Turning to `CCCCNc1c(-c2c(F)cc(F)cc2F)c(C)nn1C` [Compound 47], the “Test A rating (disease control)” value in the test with Botrytis cinerea was found to be 30%. Besides, the “Test C rating (disease control)” value in the test on Septoria nodorum is reported as 95%. The “Test D rating (disease control)” value in the test with Septoria tritici is recorded as 57%. For the same compound, the “Test F rating (disease control)” value in test [1] worked out at 98%. For the same compound, the “Test G rating (disease control)” value in test [2] came to 0%.

With `Cc1nn(C)c(NCC2CC2)c1-c1ccc(F)cc1Br` [Compound 48], the “Test A rating (disease control)” value with Botrytis cinerea came to 98%. Moreover, the “Test C rating (disease control)” value with Septoria nodorum was determined as 68%. Also, in the test on Septoria tritici, the “Test D rating (disease control)” value was 71%. Moreover, the “Test F rating (disease control)” value in test [1] stood at 89%. In addition, in test [2], the “Test G rating (disease control)” value turned out to be 0%.

The values above are taken from patent publication US20140288074A1, “FUNGICIDAL PYRAZOLES” (E I DU PONT DE NEMOURS AND COMPANY, priority 2013, published 2014).
